Test results taken from ChEMBL document CHEMBL4622906, “Design, synthesis and evaluation of novel levoglucosenone derivatives as promising anticancer agents” (Bioorg Med Chem Lett, 2020).
Activity calls are given as the source filed them. The rule behind the calls is not given here.

Test system: MDA-MB-231
Assay: Cytotoxicity against human MDA-MB-231 cells assessed as reduction in cell viability incubated for 48 hrs by MTT assay
Format: functional, cell-based
Details: MDA-MB-231, 48 h

Structure (SMILES)	IC50 [µM]
O=C1C[C@H](OCc2cn(-c3ccc(Cl)cc3)nn2)[C@H]2CO[C@@H]1O2	26.1
O=C1C[C@H](OCc2cc(/C=C/c3ccccc3)no2)[C@H]2CO[C@@H]1O2	22.9
COc1ccc(Cn2cc(CO[C@H]3CC(=O)[C@@H]4OC[C@H]3O4)nn2)cc1	34.8
O=C1C[C@H](OCc2cn(-c3ccc(F)cc3)nn2)[C@H]2CO[C@@H]1O2	23.7
O=C1C[C@H](OCc2cn(Cc3ccccc3)nn2)[C@H]2CO[C@@H]1O2	> 50
O=C1C[C@H](OCc2cc(-c3ccccc3)no2)[C@H]2CO[C@@H]1O2	21.9
O=C1C[C@H](OCc2cn(C(=O)OCC3c4ccccc4-c4ccccc43)nn2)[C@H]2CO[C@@H]1O2	18.6
O=C1C[C@H](OCc2cc(-c3ccc(Cl)cc3)no2)[C@H]2CO[C@@H]1O2	17.9
O=C1C[C@H](OCc2cn(Cc3ccc([N+](=O)[O-])cc3)nn2)[C@H]2CO[C@@H]1O2	25.4
O=C(O)c1ccc(-n2cc(CO[C@H]3CC(=O)[C@@H]4OC[C@H]3O4)nn2)cc1	23.2
O=C1C[C@H](OCc2cc(-c3ccc([N+](=O)[O-])cc3)no2)[C@H]2CO[C@@H]1O2	16.5
CCCCCCCCn1cc(CO[C@H]2CC(=O)[C@@H]3OC[C@H]2O3)nn1	> 50
O=C1C[C@H](OCc2cc(C3CCCCC3)no2)[C@H]2CO[C@@H]1O2	15.8
COC(=O)Cn1cc(CO[C@H]2CC(=O)[C@@H]3OC[C@H]2O3)nn1	21.3
COc1ccc(-c2cc(CO[C@H]3CC(=O)[C@@H]4OC[C@H]3O4)on2)cc1	21.9
CCCCCCCCn1cc(CN(C(C)=O)[C@H]2CC(=O)[C@@H]3OC[C@H]2O3)nn1	> 50
O=C1C[C@H](OCc2cc(-c3ccc(Cl)o3)no2)[C@H]2CO[C@@H]1O2	13.8
O=C1C[C@H](OCc2cn(-c3ccc([N+](=O)[O-])cc3)nn2)[C@H]2CO[C@@H]1O2	24.8

Structure (SMILES)	IC50 [µM]
O=C1C[C@H](OCc2cn(-c3cccc4ccccc34)nn2)[C@H]2CO[C@@H]1O2	21.9
O=C1CCCCC1n1cc(CO[C@H]2CC(=O)[C@@H]3OC[C@H]2O3)nn1 (some centres undefined)	36
O=C1C[C@H](OCc2cn(-c3ccccc3)nn2)[C@H]2CO[C@@H]1O2	25.2
O=C1C[C@H](OCc2cc(-c3ccc4ccccc4c3)no2)[C@H]2CO[C@@H]1O2	21.2
O=C1C[C@H](OCc2cn(Cc3ccc4ccccc4c3)nn2)[C@H]2CO[C@@H]1O2	23.7
O=C1C[C@H](OCc2cc(-c3cc(C(F)(F)F)cc(C(F)(F)F)c3)no2)[C@H]2CO[C@@H]1O2	23.9
CC(=O)N(Cc1cn(Cc2ccccc2)nn1)[C@H]1CC(=O)[C@@H]2OC[C@H]1O2	> 50
O=C1C[C@H](OCc2cn(-c3ccccc3Br)nn2)[C@H]2CO[C@@H]1O2	22.5
C=C(C)Cn1cc(CO[C@H]2CC(=O)[C@@H]3OC[C@H]2O3)nn1	26.7
CCCCn1cc(CO[C@H]2CC(=O)[C@@H]3OC[C@H]2O3)nn1	27.9
O=C(Cn1cc(CO[C@H]2CC(=O)[C@@H]3OC[C@H]2O3)nn1)c1ccccc1	25.9
CC(=O)N(Cc1cn(CC(=O)c2ccccc2)nn1)[C@H]1CC(=O)[C@@H]2OC[C@H]1O2	> 50
O=C1C[C@H](OCc2cn(-c3cccc(Cl)c3Cl)nn2)[C@H]2CO[C@@H]1O2	26
COC(=O)Cn1cc(CN(C(C)=O)[C@H]2CC(=O)[C@@H]3OC[C@H]2O3)nn1	> 50
O=C1C[C@H](OCc2cn(-c3ccccc3Cl)nn2)[C@H]2CO[C@@H]1O2	26.4
COc1ccc(/C=C/c2cc(CO[C@H]3CC(=O)[C@@H]4OC[C@H]3O4)on2)cc1	26.4
O=C1C[C@H](OCc2cn(C3CCCCC3)nn2)[C@H]2CO[C@@H]1O2	24.3

Test system: NCI-H1299
Assay: Cytotoxicity against human H1299 cells assessed as reduction in cell viability incubated for 48 hrs by MTT assay
Format: functional, cell-based
Details: NCI-H1299, 48 h

Structure (SMILES)	IC50 [µM]
O=C1C[C@H](OCc2cn(-c3ccc(Cl)cc3)nn2)[C@H]2CO[C@@H]1O2	10.6
O=C1C[C@H](OCc2cc(/C=C/c3ccccc3)no2)[C@H]2CO[C@@H]1O2	7.1
O=C1C[C@H](OCc2cc(-c3ccccc3)no2)[C@H]2CO[C@@H]1O2	9.8
O=C1C[C@H](OCc2cn(C(=O)OCC3c4ccccc4-c4ccccc43)nn2)[C@H]2CO[C@@H]1O2	9
O=C1C[C@H](OCc2cc(-c3ccc(Cl)cc3)no2)[C@H]2CO[C@@H]1O2	9
O=C1C[C@H](OCc2cc(-c3ccc([N+](=O)[O-])cc3)no2)[C@H]2CO[C@@H]1O2	11.2
O=C1C[C@H](OCc2cc(C3CCCCC3)no2)[C@H]2CO[C@@H]1O2	6.1
O=C1C[C@H](OCc2cc(-c3ccc(Cl)o3)no2)[C@H]2CO[C@@H]1O2	7.6
O=C1C[C@H](OCc2cn(-c3ccc([N+](=O)[O-])cc3)nn2)[C@H]2CO[C@@H]1O2	10.3
O=C1C[C@H](OCc2cn(-c3ccccc3)nn2)[C@H]2CO[C@@H]1O2	10.9
C=C(C)Cn1cc(CO[C@H]2CC(=O)[C@@H]3OC[C@H]2O3)nn1	14.3
O=C1C[C@H](OCc2cn(C3CCCCC3)nn2)[C@H]2CO[C@@H]1O2	12

Test system: HT-29
Assay: Cytotoxicity against human HT-29 cells assessed as reduction in cell viability incubated for 48 hrs by MTT assay
Format: functional, cell-based
Details: HT-29, 48 h

Structure (SMILES)	IC50 [µM]
O=C1C[C@H](OCc2cn(-c3ccc(Cl)cc3)nn2)[C@H]2CO[C@@H]1O2	14.7
O=C1C[C@H](OCc2cc(/C=C/c3ccccc3)no2)[C@H]2CO[C@@H]1O2	13.7
O=C1C[C@H](OCc2cc(-c3ccccc3)no2)[C@H]2CO[C@@H]1O2	16.9
O=C1C[C@H](OCc2cn(C(=O)OCC3c4ccccc4-c4ccccc43)nn2)[C@H]2CO[C@@H]1O2	15.6
O=C1C[C@H](OCc2cc(-c3ccc(Cl)cc3)no2)[C@H]2CO[C@@H]1O2	14.5
O=C1C[C@H](OCc2cc(-c3ccc([N+](=O)[O-])cc3)no2)[C@H]2CO[C@@H]1O2	19.8
O=C1C[C@H](OCc2cc(C3CCCCC3)no2)[C@H]2CO[C@@H]1O2	9
O=C1C[C@H](OCc2cc(-c3ccc(Cl)o3)no2)[C@H]2CO[C@@H]1O2	10.1
O=C1C[C@H](OCc2cn(-c3ccc([N+](=O)[O-])cc3)nn2)[C@H]2CO[C@@H]1O2	18.3
O=C1C[C@H](OCc2cn(-c3ccccc3)nn2)[C@H]2CO[C@@H]1O2	13.4
C=C(C)Cn1cc(CO[C@H]2CC(=O)[C@@H]3OC[C@H]2O3)nn1	17.2
O=C1C[C@H](OCc2cn(C3CCCCC3)nn2)[C@H]2CO[C@@H]1O2	11.9

Test system: not listed separately
Assay: Selectivity index, ratio of IC50 for African green monkey Vero cells to IC50 for human MDA-MB-231 cells
Format: toxicity
Details: Vero cells versus MDA-MB-231 cells, read-out: Ratio IC50

Structure (SMILES)	selectivity ratio
O=C1C[C@H](OCc2cn(C(=O)OCC3c4ccccc4-c4ccccc43)nn2)[C@H]2CO[C@@H]1O2	> 2
O=C1C[C@H](OCc2cn(C3CCCCC3)nn2)[C@H]2CO[C@@H]1O2	> 2

Test system: MDA-MB-231
Assay: Cytotoxicity against human MDA-MB-231 cells with p53 knock down assessed as reduction in cell viability incubated for 48 hrs by MTT assay
Format: functional, cell-based
Details: not given

Structure (SMILES)	inhibition
O=C1C[C@H](OCc2cn(-c3ccc(Cl)cc3)nn2)[C@H]2CO[C@@H]1O2	inactive
O=C1C[C@H](OCc2cc(/C=C/c3ccccc3)no2)[C@H]2CO[C@@H]1O2	inactive
O=C1C[C@H](OCc2cc(-c3ccccc3)no2)[C@H]2CO[C@@H]1O2	inactive
O=C1C[C@H](OCc2cn(C(=O)OCC3c4ccccc4-c4ccccc43)nn2)[C@H]2CO[C@@H]1O2	inactive
O=C1C[C@H](OCc2cc(-c3ccc(Cl)cc3)no2)[C@H]2CO[C@@H]1O2	inactive
O=C1C[C@H](OCc2cc(-c3ccc([N+](=O)[O-])cc3)no2)[C@H]2CO[C@@H]1O2	inactive
O=C1C[C@H](OCc2cc(C3CCCCC3)no2)[C@H]2CO[C@@H]1O2	inactive
O=C1C[C@H](OCc2cc(-c3ccc(Cl)o3)no2)[C@H]2CO[C@@H]1O2	inactive
O=C1C[C@H](OCc2cn(-c3ccc([N+](=O)[O-])cc3)nn2)[C@H]2CO[C@@H]1O2	inactive
O=C1C[C@H](OCc2cn(-c3ccccc3)nn2)[C@H]2CO[C@@H]1O2	inactive
C=C(C)Cn1cc(CO[C@H]2CC(=O)[C@@H]3OC[C@H]2O3)nn1	inactive
O=C1C[C@H](OCc2cn(C3CCCCC3)nn2)[C@H]2CO[C@@H]1O2	inactive

Test system: not listed separately
Assay: Selectivity index, ratio of IC50 for African green monkey Vero cells to IC50 for human H1299 cells
Format: toxicity
Details: Vero cells versus H1299 cells, read-out: Ratio IC50

Structure (SMILES)	selectivity ratio
O=C1C[C@H](OCc2cn(C(=O)OCC3c4ccccc4-c4ccccc43)nn2)[C@H]2CO[C@@H]1O2	5
O=C1C[C@H](OCc2cn(C3CCCCC3)nn2)[C@H]2CO[C@@H]1O2	5

Test system: not listed separately
Assay: Selectivity index, ratio of IC50 for African green monkey Vero cells to IC50 for human HT-29 cells
Format: toxicity
Details: Vero cells versus HT-29 cells, read-out: Ratio IC50

Structure (SMILES)	selectivity ratio
O=C1C[C@H](OCc2cn(C(=O)OCC3c4ccccc4-c4ccccc43)nn2)[C@H]2CO[C@@H]1O2	6
O=C1C[C@H](OCc2cn(C3CCCCC3)nn2)[C@H]2CO[C@@H]1O2	6

Test system: NCI-H1299
Assay: Cytotoxicity against human H1299 cells with p53 R280K mutant assessed as reduction in cell viability incubated for 48 hrs by MTT assay
Format: functional, cell-based
Details: not given

Structure (SMILES)	cytotoxicity activity call (active/inactive)
O=C1C[C@H](OCc2cn(-c3ccc(Cl)cc3)nn2)[C@H]2CO[C@@H]1O2	Active
O=C1C[C@H](OCc2cc(/C=C/c3ccccc3)no2)[C@H]2CO[C@@H]1O2	Active
O=C1C[C@H](OCc2cc(-c3ccccc3)no2)[C@H]2CO[C@@H]1O2	Active
O=C1C[C@H](OCc2cn(C(=O)OCC3c4ccccc4-c4ccccc43)nn2)[C@H]2CO[C@@H]1O2	Active
O=C1C[C@H](OCc2cc(-c3ccc(Cl)cc3)no2)[C@H]2CO[C@@H]1O2	Active
O=C1C[C@H](OCc2cc(-c3ccc([N+](=O)[O-])cc3)no2)[C@H]2CO[C@@H]1O2	Active
O=C1C[C@H](OCc2cc(C3CCCCC3)no2)[C@H]2CO[C@@H]1O2	Active
O=C1C[C@H](OCc2cc(-c3ccc(Cl)o3)no2)[C@H]2CO[C@@H]1O2	Active
O=C1C[C@H](OCc2cn(-c3ccc([N+](=O)[O-])cc3)nn2)[C@H]2CO[C@@H]1O2	Active
O=C1C[C@H](OCc2cn(-c3ccccc3)nn2)[C@H]2CO[C@@H]1O2	Active
C=C(C)Cn1cc(CO[C@H]2CC(=O)[C@@H]3OC[C@H]2O3)nn1	Active
O=C1C[C@H](OCc2cn(C3CCCCC3)nn2)[C@H]2CO[C@@H]1O2	Active
